{
  "source": "patent US12479823B2",
  "about": "“Compound for use in retinal diseases” (ZHUHAI UNITED LABORATORIES CO., LTD., priority 2018, dated 2025)",
  "key": {"[1]": {"molecular_target": "T1, CYP2C19 (Homo sapiens, UniProt P33261)", "T1 construct": "fused human liver microsomes were selected as a CYP450 enzyme source; from tissue; host or cells: pooled (\"fused\") human liver microsomes", "T1 sequence (P33261 whole entry, the tested form may be a part)": "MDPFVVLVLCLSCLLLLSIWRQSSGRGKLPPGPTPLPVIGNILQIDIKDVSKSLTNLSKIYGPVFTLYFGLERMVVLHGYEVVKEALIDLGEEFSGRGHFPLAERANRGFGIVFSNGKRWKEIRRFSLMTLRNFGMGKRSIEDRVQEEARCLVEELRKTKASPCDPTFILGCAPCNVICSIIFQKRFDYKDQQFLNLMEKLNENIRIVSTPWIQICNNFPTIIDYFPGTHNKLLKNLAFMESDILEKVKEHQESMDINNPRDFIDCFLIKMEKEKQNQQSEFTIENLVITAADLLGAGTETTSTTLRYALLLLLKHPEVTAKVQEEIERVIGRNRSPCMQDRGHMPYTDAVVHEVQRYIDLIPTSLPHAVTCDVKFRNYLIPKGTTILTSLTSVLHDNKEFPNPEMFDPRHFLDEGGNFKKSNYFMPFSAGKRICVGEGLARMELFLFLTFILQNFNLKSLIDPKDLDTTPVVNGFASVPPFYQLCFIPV", "experiment": "Inhibition of human liver microsomal cytochrome P450 CYP2C19", "format": "in vitro ADME", "conditions": "human liver microsomes, probe substrate, NADPH", "description": "(§1) Objective: To study the inhibitory effect of compounds on human liver microsomal cytochrome P450. Experimental procedures: In the study on inhibition of the compounds on the human liver microsomal cytochrome P450 (CYP1A2, CYP2C9, CYP2C19, CYP2D6 and CYP3A4), fused human liver microsomes were selected as a CYP450 enzyme source. […]"}, "[2]": {"experiment": "Pharmacokinetics in Beagle dogs, single intravenous injection", "format": "in vivo", "conditions": "male, dog, plasma, 1 mg/kg single intravenous injection", "description": "Objective: To Study Pharmacokinetics of the Compound in Beagle Dogs\nExperimental Material: Beagle Dogs (male, 8-11 kg, greater than or equal to 6 months, Marshall)\nPharmacokinetic profiles of the compound were tested by intravenous administration in […] according to the standard protocol. In the study, the candidate compound was prepared as a clear solution, and was administered to Beagle dogs at 1 mg/kg by single intravenous injection. A vehicle for intravenous injection was a 10% hydroxypropyl ß-cyclodextrin aqueous solution. Whole blood samples were collected at 0.033, 0.083, 0.25, 0.5, 1, 2, 4, 8, 12, and 24 hours, respectively, centrifuged at 3000 r for 10 min, and separated from supernatant to obtain plasma samples. 20 μL of plasma samples were mixed with 400 μL of acetonitrile precipitated proteins containing an internal standard, and 2 μL of the supernatant was injected by centrifugation. Plasma concentrations were quantified by LC-MS/MS analysis, and pharmacokinetic parameters, such as clearance, half-life, and area under the concentration-time curve, etc. were calculated."}, "[3]": {"molecular_target": "T2, CYP1A2 (Homo sapiens, UniProt P05177)", "T2 construct": "fused human liver microsomes were selected as a CYP450 enzyme source; from tissue; host or cells: pooled (\"fused\") human liver microsomes", "T2 sequence (P05177 1-516)": "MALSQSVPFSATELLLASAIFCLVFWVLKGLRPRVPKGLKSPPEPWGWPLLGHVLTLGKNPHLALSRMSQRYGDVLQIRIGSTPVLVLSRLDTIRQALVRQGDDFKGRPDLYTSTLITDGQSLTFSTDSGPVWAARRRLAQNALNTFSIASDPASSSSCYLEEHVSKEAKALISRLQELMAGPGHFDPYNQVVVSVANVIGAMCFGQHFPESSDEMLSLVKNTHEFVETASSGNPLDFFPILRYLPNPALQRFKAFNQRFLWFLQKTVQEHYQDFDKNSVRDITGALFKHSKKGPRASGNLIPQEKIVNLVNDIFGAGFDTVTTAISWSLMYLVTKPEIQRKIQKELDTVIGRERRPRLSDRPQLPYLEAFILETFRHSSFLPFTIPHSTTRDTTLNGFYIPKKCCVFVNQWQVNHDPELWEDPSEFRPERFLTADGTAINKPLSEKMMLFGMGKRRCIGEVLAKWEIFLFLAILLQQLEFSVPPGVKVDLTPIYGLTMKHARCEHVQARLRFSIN", "experiment": "Inhibition of human liver microsomal cytochrome P450 CYP1A2", "format": "in vitro ADME", "conditions": "human liver microsomes, probe substrate, NADPH", "description": "as §1"}},
  "data": [
    {"smiles": "CC(C)(O)c1ccc(-c2cnc(C(C)(C)O)c(N)c2)cc1N", "note": "[Compound 3]", "values": [
      {"measurement": "IC50", "setting": "[1]", "result": "> 50", "unit": "µM"},
      {"measurement": "clearance", "setting": "[2]", "result": 15, "unit": "mL/min/kg"},
      {"measurement": "AUC", "setting": "[2]; read-out: Area under the concentration-time curve AUC", "result": 3.71, "unit": "µM·h"},
      {"measurement": "half-life", "setting": "[2]; read-out: Half-time T1/2 (converted)", "result": 2.17, "unit": "h"},
      {"measurement": "IC50", "setting": "[3]", "result": "> 50", "unit": "µM"}
    ]}
  ]
}
